We go through two molecules from paper PMC8515367 (ACS Omega, 2021).

Residue numbers refer to the chain shown, from its start. Where “and” joins values, the source holds several entries; their conditions need not be identical. Identical values can stand only once. Like-named read-outs stand apart in the source and are kept apart here.

One assay has as its system T113V mutants of ecDHFR. Particulars: cited from earlier work.
The target of assay [1] is T1, M42F/G121V-ecDHFR (Escherichia coli, UniProt P0ABQ4, G121V/M42F).
T1 sequence (P0ABQ4 1-159 M42F/G121V): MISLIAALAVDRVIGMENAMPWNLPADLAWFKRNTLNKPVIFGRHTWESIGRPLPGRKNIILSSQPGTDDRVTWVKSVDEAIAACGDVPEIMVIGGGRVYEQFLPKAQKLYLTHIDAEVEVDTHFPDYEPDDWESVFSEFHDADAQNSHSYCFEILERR
The assay can be described thus: Ligand-binding assay, tryptophan fluorescence titration.

Assay [2] concerns the target T2, G121S-ecDHFR (Escherichia coli, UniProt P0ABQ4, G121S).
T2 sequence (P0ABQ4 1-159 G121S): T1 sequence (P0ABQ4 1-159 M42F/G121V) with F42M, V121S
The description is as above.

Assay [3] has as its target T3, T113V/G121V-ecDHFR (Escherichia coli, UniProt P0ABQ4, G121V/T113V).
T3 sequence (P0ABQ4 1-159 T113V/G121V): T1 sequence (P0ABQ4 1-159 M42F/G121V) with F42M, T113V
The assay can be described thus: Double-mutant cycle analysis of ligand binding. To be noted: A′ = T113V, B′ = G121V.

For assay [4], the target named is T4, wildtype ecDHFR (Escherichia coli, UniProt P0ABQ4).
T4 sequence (P0ABQ4 1-159): T1 sequence (P0ABQ4 1-159 M42F/G121V) with F42M, V121G
The assay can be described thus: Ligand-binding assay, tryptophan fluorescence titration.

Assay [5] addresses T5, M42F/G121S-ecDHFR (Escherichia coli, UniProt P0ABQ4, G121S/M42F).
T5 sequence (P0ABQ4 1-159 M42F/G121S): T1 sequence (P0ABQ4 1-159 M42F/G121V) with V121S
The description is as above.

Assay [6] concerns the target T6, G121V-ecDHFR (Escherichia coli, UniProt P0ABQ4, G121V).
T6 sequence (P0ABQ4 1-159 G121V): T1 sequence (P0ABQ4 1-159 M42F/G121V) with F42M
Particulars: cited from earlier work.

The target of the next assay is T7, T113V-ecDHFR (Escherichia coli, UniProt P0ABQ4, T113V).
T7 sequence (P0ABQ4 1-159 T113V): T1 sequence (P0ABQ4 1-159 M42F/G121V) with F42M, T113V, V121G
As to the kind of experiment: Ligand-binding assay, tryptophan fluorescence titration.

Assay [7] concerns the target T6, G121V-ecDHFR. Described as above.
Assay [8] deals with T5, M42F/G121S-ecDHFR. The assay can be described thus: Double-mutant cycle analysis of ligand binding. To be noted: A′ = M42F, B′ = G121S.
For assay [9], the target named is T4, wildtype ecDHFR. To be noted: read-out: KD^NADPH, previous reports; cited from earlier work.
The target in assay [10] is T1, M42F/G121V-ecDHFR. The assay can be described thus: Double-mutant cycle analysis of ligand binding. Particulars: A′ = M42F, B′ = G121V.
The target in assay [11] is T3, T113V/G121V-ecDHFR. The assay can be described thus: Ligand-binding assay, tryptophan fluorescence titration.
For assay [12], the target named is T8, T113V/G121S-ecDHFR (Escherichia coli, UniProt P0ABQ4, G121S/T113V).
T8 sequence (P0ABQ4 1-159 T113V/G121S): T1 sequence (P0ABQ4 1-159 M42F/G121V) with F42M, T113V, V121S
As to the kind of experiment: Double-mutant cycle analysis of ligand binding. Particulars: A′ = T113V, B′ = G121S.

The target of a further assay is T9, M42F-ecDHFR (Escherichia coli, UniProt P0ABQ4, M42F).
T9 sequence (P0ABQ4 1-159 M42F): T1 sequence (P0ABQ4 1-159 M42F/G121V) with V121G
As to the kind of experiment: Ligand-binding assay, tryptophan fluorescence titration.

Assay [13] deals with T2, G121S-ecDHFR. Particulars: cited from earlier work.
The target in assay [14] is T8, T113V/G121S-ecDHFR. The assay can be described thus: Ligand-binding assay, tryptophan fluorescence titration.

As to `Nc1nc(=O)c2c([nH]1)NCC(CNc1ccc(C(=O)N[C@@H](CCC(=O)O)C(=O)O)cc1)=N2` [H2F, 7,8-dihydrofolate], the “decrease in H2F-binding affinity” value in the assay with T113V mutants of ecDHFR is given as 20–30 fold.
One may read the Kd as the free concentration of one partner at which half of the binding sites on the other are occupied at equilibrium, for simple one-to-one binding. With `NC(=O)C1=CN([C@@H]2O[C@H](COP(=O)(O)OP(=O)(O)OC[C@H]3O[C@@H](n4cnc5c(N)ncnc54)[C@H](OP(=O)(O)O)[C@@H]3O)[C@@H](O)[C@H]2O)C=CC1` [NADPH, nicotinamide adenine dinucleotide phosphate], the Kd at M42F/G121V-ecDHFR [1] was 74 ± 9.09 µM; on G121S-ecDHFR [2], 9.73 ± 2.4 µM; on wildtype ecDHFR [4] (KD^NADPH, 5 μM ecDHFR, ΔF340nm analysis, fitted up to 100 μM NADPH), 1.23 ± 0.06 µM; on M42F/G121S-ecDHFR [5], 116 ± 20.1 µM; on T113V-ecDHFR it was 13.7 ± 1.82 µM; on G121V-ecDHFR [7], 12.2 ± 1.41 µM. Further, the Kd on wildtype ecDHFR [9] was 0.34 µM and 0.44 µM; at T113V/G121V-ecDHFR [11], 137 ± 1.94 µM; on M42F-ecDHFR it was 33.6 ± 2.67 µM; at T113V/G121S-ecDHFR [14], 77.5 ± 19.2 µM. In addition, the ΔG1 at T113V/G121V-ecDHFR [3] came to 5.98 kcal/mol; on M42F/G121S-ecDHFR [8] it was 8.20 kcal/mol; at M42F/G121V-ecDHFR [10] it was 8.20 kcal/mol; on T113V/G121S-ecDHFR [12] it was 5.98 kcal/mol. For the same molecule, the ΔG2 on T113V/G121V-ecDHFR [3] was 5.69 kcal/mol; on M42F/G121S-ecDHFR [8], 5.12 kcal/mol; on M42F/G121V-ecDHFR [10] it was 5.69 kcal/mol; at T113V/G121S-ecDHFR [12] it was 5.12 kcal/mol. Further, the “ΔG′1” value on T113V/G121V-ecDHFR [3] is 5.99 kcal/mol; on M42F/G121S-ecDHFR [8], 6.13 kcal/mol; at M42F/G121V-ecDHFR [10] it was 4.45 kcal/mol; on T113V/G121S-ecDHFR [12] it was 5.19 kcal/mol. Also, the “ΔG′2” value worked out at 5.71 kcal/mol on T113V/G121V-ecDHFR [3], 3.06 kcal/mol at M42F/G121S-ecDHFR [8], 1.95 kcal/mol at M42F/G121V-ecDHFR [10] and 4.33 kcal/mol at T113V/G121S-ecDHFR [12]. For the same molecule, the ΔΔG at T113V/G121V-ecDHFR [3] was 0.02 kcal/mol; at M42F/G121S-ecDHFR [8], “–2.06 kcal/mole”; on M42F/G121V-ecDHFR [10] it was “–3.75 kcal/mole”; on T113V/G121S-ecDHFR [12], “–0.79 kcal/mole”. On wildtype ecDHFR [4] (versus 0.34 and […]), the “KD^NADPH weaker than previous reports” value is 3∼4 fold. Moreover, the NADPH binding weakened at G121V-ecDHFR [6] was 40 fold; on G121S-ecDHFR [13], 10 fold.
